From patent US11040028B2, “Penicinotam derivative, preparation method and use thereof” (OCEAN UNIVERSITY OF CHINA, priority 2017, dated 2021)

Test system: human fibrosarcoma cells HT-1080
Test: Anti-fibrosis activity test: inhibition of proliferation of human fibrosarcoma cells HT-1080 (CCK-8)
Assay type: cell-based
Conditions: Homo sapiens, HT-1080, 48 h, HT-1080 cells, 48 h, CCK-8
Outline: (§1)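 A CCK-8 proliferation assay was run: cells at 2×10^4 cells/mL, adherent for 24 h, then incubated 48 h at 37° C with compound dilutions. A450 was recorded 2 h after CCK-8 addition and converted to percent inhibition versus blank for IC50 determination.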

| Structure (SMILES) | IC50 |
| --- | --- |
| Cc1cc(C)c2c(=O)c3c([nH]c2c1)-c1cccn1C3=O [Compound 768a, 6,8-Dimethyl-9H-pyrrolizino[1,2-b]quinoline-9,10(4H)-dione] | 0.05 to 5 mM |

Same assay, conditions: Homo sapiens, HT-1080, 48 h, human fibrosarcoma cells HT-1080, CCK-8, 48 hours

| Structure (SMILES) | IC50 |
| --- | --- |
| O=C1c2c(n(CCN3CCNCC3)c3ccccc3c2=O)-c2cccn21 [Compound 98a, 4-(2-(Piperazin-1-yl)ethyl)-9H-pyrrolizino[1,2-b]quinoline-9,10(4H)-dione] | 0.05 to 5 mM |
| O=C1c2c([nH]c3cccc(C(F)(F)F)c3c2=O)-c2cccn21 [Compound 479a, 8-(Trifluoromethyl)-9H-pyrrolizino[1,2-b]quinoline-9,10(4H)-dione] | 0.05 to 5 mM |
| O=C1c2c(nc3ccccc3c2OCCF)-c2cccn21 [Compound 653b, 9-(2-fluoroethoxy)-10H-pyrrolizino[1,2-b]quinolin-10-one] | 0.05 to 5 mM |

Test system: NF-κB
Test: Immunological activity test: inhibition of NF-κB activity
Assay type: cell-based
Conditions: initial concentration of 30 μM; a/b isomers given as first/second symbol; read-out: IC50 (μM), inhibitory activity against NF-κB
Outline: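 Compounds were first screened for inhibition of NF-κB activity at 30 μM, with parthenolide as the positive control. IC50 values were then determined for the compounds by further analysis of the assay data.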

| Structure (SMILES) | IC50 |
| --- | --- |
| O=C1c2c(n(CCN3CCNCC3)c3ccccc3c2=O)-c2cccn21 [Compound 98a, 4-(2-(Piperazin-1-yl)ethyl)-9H-pyrrolizino[1,2-b]quinoline-9,10(4H)-dione] | 1 to 10 µM |
| O=C1c2c([nH]c3cccc(C(F)(F)F)c3c2=O)-c2cccn21 [Compound 479a, 8-(Trifluoromethyl)-9H-pyrrolizino[1,2-b]quinoline-9,10(4H)-dione] | 10 to 50 µM |
| O=C1c2c(nc3ccccc3c2OCCF)-c2cccn21 [Compound 653b, 9-(2-fluoroethoxy)-10H-pyrrolizino[1,2-b]quinolin-10-one] | 1 to 10 µM |
| Cc1cc(C)c2c(=O)c3c([nH]c2c1)-c1cccn1C3=O [Compound 768a, 6,8-Dimethyl-9H-pyrrolizino[1,2-b]quinoline-9,10(4H)-dione] | 0.1 to 1 µM |

Test system: cardiac fibroblast RAT-iCell-C002
Test: Anti-fibrosis activity test: inhibition of proliferation of cardiac fibroblast RAT-iCell-C002 (CCK-8)
Assay type: cell-based
Conditions: Cardiac fibroblast, 48 h, RAT-iCell-C002 cells, CCK-8
Outline: as §1

| Structure (SMILES) | IC50 |
| --- | --- |
| Cc1cc(C)c2c(=O)c3c([nH]c2c1)-c1cccn1C3=O [Compound 768a, 6,8-Dimethyl-9H-pyrrolizino[1,2-b]quinoline-9,10(4H)-dione] | 0.05 to 5 mM |

Same assay, conditions: Cardiac fibroblast, 48 h, cardiac fibroblast RAT-iCell-C002, CCK-8, 48 hours

| Structure (SMILES) | IC50 |
| --- | --- |
| O=C1c2c(n(CCN3CCNCC3)c3ccccc3c2=O)-c2cccn21 [Compound 98a, 4-(2-(Piperazin-1-yl)ethyl)-9H-pyrrolizino[1,2-b]quinoline-9,10(4H)-dione] | 0.05 to 5 mM |
| O=C1c2c([nH]c3cccc(C(F)(F)F)c3c2=O)-c2cccn21 [Compound 479a, 8-(Trifluoromethyl)-9H-pyrrolizino[1,2-b]quinoline-9,10(4H)-dione] | 0.05 to 5 mM |
| O=C1c2c(nc3ccccc3c2OCCF)-c2cccn21 [Compound 653b, 9-(2-fluoroethoxy)-10H-pyrrolizino[1,2-b]quinolin-10-one] | 0.05 to 5 mM |

Test system: mouse macrophages (RAW264.7)
Test: Lipopolysaccharide-induced NO secretion in macrophages (Griess)
Assay type: cell-based
Conditions: Mus musculus, RAW264.7, 24 h, RAW264.7, LPS 1 μg/ml, a/b isomers given as first/second symbol, read-out: IC50 (μM), inhibition of lipopolysaccharide-induced NO secretion in macrophages
Outline: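 Absorbance at 548 nm after Griess reagent addition to culture supernatant gave NO content; inhibition rate was derived relative to blank control. Cells were mouse RAW264.7 macrophages exposed to compounds and 1 μg/ml LPS for 24 hours.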

| Structure (SMILES) | IC50 |
| --- | --- |
| O=C1c2c(n(CCN3CCNCC3)c3ccccc3c2=O)-c2cccn21 [Compound 98a, 4-(2-(Piperazin-1-yl)ethyl)-9H-pyrrolizino[1,2-b]quinoline-9,10(4H)-dione] | 1 to 10 µM |
| O=C1c2c([nH]c3cccc(C(F)(F)F)c3c2=O)-c2cccn21 [Compound 479a, 8-(Trifluoromethyl)-9H-pyrrolizino[1,2-b]quinoline-9,10(4H)-dione] | 10 to 50 µM |
| O=C1c2c(nc3ccccc3c2OCCF)-c2cccn21 [Compound 653b, 9-(2-fluoroethoxy)-10H-pyrrolizino[1,2-b]quinolin-10-one] | 1 to 10 µM |
| Cc1cc(C)c2c(=O)c3c([nH]c2c1)-c1cccn1C3=O [Compound 768a, 6,8-Dimethyl-9H-pyrrolizino[1,2-b]quinoline-9,10(4H)-dione] | 1 to 10 µM |

Test system: human hepatic stellate cells LX-2
Test: Anti-fibrosis activity test: inhibition of proliferation of human hepatic stellate cells LX-2 (CCK-8)
Assay type: cell-based
Conditions: Homo sapiens, 48 h, human hepatic stellate cells LX-2, CCK-8, 48 hours
Outline: as §1

| Structure (SMILES) | IC50 |
| --- | --- |
| O=C1c2c(n(CCN3CCNCC3)c3ccccc3c2=O)-c2cccn21 [Compound 98a, 4-(2-(Piperazin-1-yl)ethyl)-9H-pyrrolizino[1,2-b]quinoline-9,10(4H)-dione] | < 0.05 mM |
| O=C1c2c([nH]c3cccc(C(F)(F)F)c3c2=O)-c2cccn21 [Compound 479a, 8-(Trifluoromethyl)-9H-pyrrolizino[1,2-b]quinoline-9,10(4H)-dione] | 0.05 to 5 mM |
| O=C1c2c(nc3ccccc3c2OCCF)-c2cccn21 [Compound 653b, 9-(2-fluoroethoxy)-10H-pyrrolizino[1,2-b]quinolin-10-one] | 0.05 to 5 mM |

Same assay, conditions: Homo sapiens, LX-2, 48 h, LX-2 cells, 48 h, CCK-8

| Structure (SMILES) | IC50 |
| --- | --- |
| Cc1cc(C)c2c(=O)c3c([nH]c2c1)-c1cccn1C3=O [Compound 768a, 6,8-Dimethyl-9H-pyrrolizino[1,2-b]quinoline-9,10(4H)-dione] | 0.05 to 5 mM |

Test system: human embryonic lung fibroblast IMR-90
Test: Anti-fibrosis activity test: inhibition of proliferation of human embryonic lung fibroblast IMR-90 (CCK-8)
Assay type: cell-based
Conditions: Homo sapiens; IMR-90 cells, 48 h, CCK-8
Outline: as §1

| Structure (SMILES) | IC50 |
| --- | --- |
| Cc1cc(C)c2c(=O)c3c([nH]c2c1)-c1cccn1C3=O [Compound 768a, 6,8-Dimethyl-9H-pyrrolizino[1,2-b]quinoline-9,10(4H)-dione] | 0.05 to 5 mM |

Same assay, conditions: human embryonic lung fibroblast IMR-90, CCK-8, 48 hours

| Structure (SMILES) | IC50 |
| --- | --- |
| O=C1c2c(n(CCN3CCNCC3)c3ccccc3c2=O)-c2cccn21 [Compound 98a, 4-(2-(Piperazin-1-yl)ethyl)-9H-pyrrolizino[1,2-b]quinoline-9,10(4H)-dione] | < 0.05 mM |
| O=C1c2c([nH]c3cccc(C(F)(F)F)c3c2=O)-c2cccn21 [Compound 479a, 8-(Trifluoromethyl)-9H-pyrrolizino[1,2-b]quinoline-9,10(4H)-dione] | 0.05 to 5 mM |
| O=C1c2c(nc3ccccc3c2OCCF)-c2cccn21 [Compound 653b, 9-(2-fluoroethoxy)-10H-pyrrolizino[1,2-b]quinolin-10-one] | 0.05 to 5 mM |

Test system: human lung fibroblasts HFL1
Test: Anti-fibrosis activity test: inhibition of proliferation of human lung fibroblasts HFL1 (CCK-8)
Assay type: cell-based
Conditions: Homo sapiens, HFL1, 48 h, HFL1 cells, 48 h, CCK-8
Outline: as §1

| Structure (SMILES) | IC50 |
| --- | --- |
| Cc1cc(C)c2c(=O)c3c([nH]c2c1)-c1cccn1C3=O [Compound 768a, 6,8-Dimethyl-9H-pyrrolizino[1,2-b]quinoline-9,10(4H)-dione] | 0.05 to 5 mM |

Same assay, conditions: Homo sapiens, HFL1, 48 h, human lung fibroblasts HFL1, CCK-8, 48 hours

| Structure (SMILES) | IC50 |
| --- | --- |
| O=C1c2c(n(CCN3CCNCC3)c3ccccc3c2=O)-c2cccn21 [Compound 98a, 4-(2-(Piperazin-1-yl)ethyl)-9H-pyrrolizino[1,2-b]quinoline-9,10(4H)-dione] | 0.05 to 5 mM |
| O=C1c2c([nH]c3cccc(C(F)(F)F)c3c2=O)-c2cccn21 [Compound 479a, 8-(Trifluoromethyl)-9H-pyrrolizino[1,2-b]quinoline-9,10(4H)-dione] | 0.05 to 5 mM |
| O=C1c2c(nc3ccccc3c2OCCF)-c2cccn21 [Compound 653b, 9-(2-fluoroethoxy)-10H-pyrrolizino[1,2-b]quinolin-10-one] | 0.05 to 5 mM |

Test system: human dermal fibroblasts CCC-ESF-1
Test: Anti-fibrosis activity test: inhibition of proliferation of human dermal fibroblasts CCC-ESF-1 (CCK-8)
Assay type: cell-based
Conditions: Fibroblast; human dermal fibroblasts CCC-ESF-1, CCK-8, 48 hours
Outline: as §1

| Structure (SMILES) | IC50 |
| --- | --- |
| O=C1c2c(n(CCN3CCNCC3)c3ccccc3c2=O)-c2cccn21 [Compound 98a, 4-(2-(Piperazin-1-yl)ethyl)-9H-pyrrolizino[1,2-b]quinoline-9,10(4H)-dione] | < 0.05 mM |
| O=C1c2c([nH]c3cccc(C(F)(F)F)c3c2=O)-c2cccn21 [Compound 479a, 8-(Trifluoromethyl)-9H-pyrrolizino[1,2-b]quinoline-9,10(4H)-dione] | 0.05 to 5 mM |
| O=C1c2c(nc3ccccc3c2OCCF)-c2cccn21 [Compound 653b, 9-(2-fluoroethoxy)-10H-pyrrolizino[1,2-b]quinolin-10-one] | 0.05 to 5 mM |

Same assay, conditions: Homo sapiens, Fibroblast; CCC-ESF-1 cells, 48 h, CCK-8

| Structure (SMILES) | IC50 |
| --- | --- |
| Cc1cc(C)c2c(=O)c3c([nH]c2c1)-c1cccn1C3=O [Compound 768a, 6,8-Dimethyl-9H-pyrrolizino[1,2-b]quinoline-9,10(4H)-dione] | 0.05 to 5 mM |

Test system: BHK-21 cells
Test: Anti-fibrosis activity test: inhibition of BHK-21 cell proliferation (CCK-8)
Assay type: cell-based
Conditions: Mesocricetus auratus, BHK-21, 48 h, 48 h, CCK-8
Outline: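 BHK-21 cells seeded at 2×10^4 cells/mL, allowed to adhere 24 h at 37° C, 5% CO2, then exposed to compounds at graded concentrations in triplicate for 48 h. CCK-8 added for 2 h and absorbance read at 450 nm; inhibition rate taken as (1−Ai/Ao)×100% and IC50 fitted.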

| Structure (SMILES) | IC50 |
| --- | --- |
| Cc1cc(C)c2c(=O)c3c([nH]c2c1)-c1cccn1C3=O [Compound 768a, 6,8-Dimethyl-9H-pyrrolizino[1,2-b]quinoline-9,10(4H)-dione] | 0.05 to 5 mM |

Same assay, conditions: Mesocricetus auratus, BHK-21, 48 h, CCK-8, 48 hours after administration

| Structure (SMILES) | IC50 |
| --- | --- |
| O=C1c2c(n(CCN3CCNCC3)c3ccccc3c2=O)-c2cccn21 [Compound 98a, 4-(2-(Piperazin-1-yl)ethyl)-9H-pyrrolizino[1,2-b]quinoline-9,10(4H)-dione] | < 0.05 mM |
| O=C1c2c([nH]c3cccc(C(F)(F)F)c3c2=O)-c2cccn21 [Compound 479a, 8-(Trifluoromethyl)-9H-pyrrolizino[1,2-b]quinoline-9,10(4H)-dione] | < 0.05 mM |
| O=C1c2c(nc3ccccc3c2OCCF)-c2cccn21 [Compound 653b, 9-(2-fluoroethoxy)-10H-pyrrolizino[1,2-b]quinolin-10-one] | 0.05 to 5 mM |
